For one data set, the target named is hMOR (Homo sapiens, UniProt P35372). Briefly: cell-based. In kind it is cell-based. As to conditions: for Emax: CHO-K1, read-out: cAMP accumulation Emax %.
The next data set addresses CYP2D6 (Homo sapiens, UniProt P10635). Kind of data set: CYP inhibition in human liver microsomes, dextromethorphan O-demethylation. The settings on record: for Inhibition of CYP2D6 activity (in words): human liver microsomes, extracts 2, 10, 20 µg/mL, alkaloids 1, 10, 100 µM.
Data set [1] concerns the target T1, µ-opioid receptor (Homo sapiens, UniProt P35372). Kind of data set: biochemical. Type of data set: binding. More on the design: expressed in transfected cells.
The target in a further data set is T2, human δ-opioid receptor (Homo sapiens, UniProt P41143).
T2 construct: expressed in transfected cells
T2 sequence (P41143 whole entry): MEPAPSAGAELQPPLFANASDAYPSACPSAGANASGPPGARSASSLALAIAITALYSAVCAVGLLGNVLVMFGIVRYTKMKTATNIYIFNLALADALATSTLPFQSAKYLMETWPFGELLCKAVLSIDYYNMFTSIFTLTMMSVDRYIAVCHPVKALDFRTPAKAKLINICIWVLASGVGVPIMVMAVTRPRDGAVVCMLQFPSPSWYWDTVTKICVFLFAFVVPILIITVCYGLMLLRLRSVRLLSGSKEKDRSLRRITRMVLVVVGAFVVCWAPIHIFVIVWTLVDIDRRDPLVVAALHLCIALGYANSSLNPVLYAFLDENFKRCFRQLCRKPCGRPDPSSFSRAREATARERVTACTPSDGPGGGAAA
Kind of data set: Competitive radioligand binding, δ-opioid receptor. As to conditions: for Ki: competitive binding against 3H-deltorphin, HEK293 cell membranes, minimum of three replicates, read-out: Receptor binding affinity (Ki ± SEM, nM) δ-opioid; for Affinity at δ-opioid receptor (in words): competitive radioligand binding, HEK293.

Data set [2] deals with T1, µ-opioid receptor. In kind it is cell-based.
Another data set addresses CYP2C9 (Homo sapiens, UniProt P11712). Kind of data set: CYP inhibition in human liver microsomes, diclofenac 4′-hydroxylation. As to conditions: for Inhibition of CYP2C9 activity (in words): human liver microsomes, extracts 2, 10, 20 µg/mL, alkaloids 1, 10, 100 µM. Background: Microsomes from liver hold many membrane-bound enzymes, among them those of drug oxidation.
In another data set the target is CYP3A (Homo sapiens, UniProt P08684). Kind of data set: CYP inhibition in human liver microsomes, midazolam 1′-hydroxylation. The settings on record: for Inhibition of CYP3A activity (in words): human liver microsomes, extracts 2, 10, 20 µg/mL, alkaloids 1, 10, 100 µM.
CYP3A, sequence (P08684 2-503): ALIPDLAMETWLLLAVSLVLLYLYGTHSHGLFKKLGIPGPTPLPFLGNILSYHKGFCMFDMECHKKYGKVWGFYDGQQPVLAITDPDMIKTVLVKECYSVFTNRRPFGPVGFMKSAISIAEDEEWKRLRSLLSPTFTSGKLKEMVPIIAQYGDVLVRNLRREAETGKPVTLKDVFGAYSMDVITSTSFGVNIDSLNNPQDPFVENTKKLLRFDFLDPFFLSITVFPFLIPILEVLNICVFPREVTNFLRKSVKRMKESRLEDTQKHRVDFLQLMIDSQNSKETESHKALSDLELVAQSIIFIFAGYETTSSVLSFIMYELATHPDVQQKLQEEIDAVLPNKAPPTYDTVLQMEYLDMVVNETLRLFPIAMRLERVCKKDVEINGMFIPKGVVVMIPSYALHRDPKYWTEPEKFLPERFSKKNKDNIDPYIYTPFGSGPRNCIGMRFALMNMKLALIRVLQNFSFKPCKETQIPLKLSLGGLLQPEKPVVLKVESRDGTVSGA
A further data set concerns the target T3, human κ-opioid receptor (Homo sapiens, UniProt P41145).
T3 construct: expressed in transfected cells
Briefly: biochemical. In kind it is binding.

In data set [3] the test system is human µ-opioid receptor (hMOR). As to conditions: cited from earlier work.

Structures are written as SMILES. Entries after “also recorded” stand apart in the source; their conditions may differ. Bounds are passed on as bounds.

CYP2C9, sequence (P11712 whole entry): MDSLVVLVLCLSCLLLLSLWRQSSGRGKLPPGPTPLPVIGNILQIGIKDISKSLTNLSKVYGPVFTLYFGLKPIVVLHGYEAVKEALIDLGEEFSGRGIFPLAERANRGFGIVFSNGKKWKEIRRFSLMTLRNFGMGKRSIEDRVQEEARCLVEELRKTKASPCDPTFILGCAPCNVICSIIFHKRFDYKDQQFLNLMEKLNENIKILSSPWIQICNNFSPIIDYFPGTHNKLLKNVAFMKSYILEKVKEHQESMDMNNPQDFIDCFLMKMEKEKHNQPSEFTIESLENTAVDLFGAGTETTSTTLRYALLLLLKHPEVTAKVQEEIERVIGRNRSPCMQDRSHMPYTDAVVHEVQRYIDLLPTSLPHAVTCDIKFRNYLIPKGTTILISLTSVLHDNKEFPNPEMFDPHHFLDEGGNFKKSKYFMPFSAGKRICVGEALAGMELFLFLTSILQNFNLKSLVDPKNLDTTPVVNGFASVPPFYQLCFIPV
T3 sequence (P41145 whole entry): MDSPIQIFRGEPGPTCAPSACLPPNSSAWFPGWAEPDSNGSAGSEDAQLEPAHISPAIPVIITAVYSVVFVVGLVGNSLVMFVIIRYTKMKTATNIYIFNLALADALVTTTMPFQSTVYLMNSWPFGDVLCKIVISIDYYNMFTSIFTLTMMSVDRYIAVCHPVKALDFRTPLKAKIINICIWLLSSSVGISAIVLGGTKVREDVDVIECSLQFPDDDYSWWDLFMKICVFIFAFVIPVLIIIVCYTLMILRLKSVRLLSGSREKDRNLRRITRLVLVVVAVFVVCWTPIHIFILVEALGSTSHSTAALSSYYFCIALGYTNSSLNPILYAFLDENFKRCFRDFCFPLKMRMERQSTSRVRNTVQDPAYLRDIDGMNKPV
T1 sequence (P35372 whole entry): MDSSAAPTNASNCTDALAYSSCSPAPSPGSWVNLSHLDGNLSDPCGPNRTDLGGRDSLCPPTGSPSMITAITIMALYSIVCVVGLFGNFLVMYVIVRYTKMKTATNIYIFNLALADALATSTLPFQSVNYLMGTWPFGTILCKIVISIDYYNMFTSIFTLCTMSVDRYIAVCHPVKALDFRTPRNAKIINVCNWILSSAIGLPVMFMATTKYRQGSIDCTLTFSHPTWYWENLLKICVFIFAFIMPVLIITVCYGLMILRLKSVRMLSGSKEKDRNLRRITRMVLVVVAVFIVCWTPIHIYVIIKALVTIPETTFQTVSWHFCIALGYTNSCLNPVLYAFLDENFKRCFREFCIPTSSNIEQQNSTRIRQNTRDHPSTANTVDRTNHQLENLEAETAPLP
hMOR, sequence (P35372 whole entry): as above
CYP2D6, sequence (P10635 whole entry): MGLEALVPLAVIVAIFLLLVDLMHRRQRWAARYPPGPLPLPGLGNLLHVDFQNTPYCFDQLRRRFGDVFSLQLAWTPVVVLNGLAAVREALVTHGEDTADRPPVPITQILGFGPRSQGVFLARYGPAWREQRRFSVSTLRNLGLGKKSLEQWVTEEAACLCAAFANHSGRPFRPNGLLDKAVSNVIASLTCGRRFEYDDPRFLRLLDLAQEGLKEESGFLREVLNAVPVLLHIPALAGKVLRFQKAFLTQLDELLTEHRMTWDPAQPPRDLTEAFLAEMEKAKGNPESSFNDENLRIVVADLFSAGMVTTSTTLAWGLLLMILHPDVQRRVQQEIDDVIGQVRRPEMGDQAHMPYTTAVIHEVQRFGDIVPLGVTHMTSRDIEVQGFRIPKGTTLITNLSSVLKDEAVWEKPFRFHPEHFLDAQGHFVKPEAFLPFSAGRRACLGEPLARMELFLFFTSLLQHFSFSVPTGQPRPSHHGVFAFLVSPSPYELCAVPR

The term EC50 denotes the concentration needed to bring the measured effect to its halfway point. The low end stands for higher potency in that assay, the high end for lower potency in that assay. Broadly, the Emax is the size of the effect at its maximum, as opposed to the concentration needed. The Ki is the dissociation constant of the complex between target and ligand, obtained from inhibition or displacement. Take `CC[C@@H]1CN2CC[C@]3(C(=O)Nc4cccc(O)c43)[C@H]2C[C@@H]1/C(=C\OC)C(=O)OC` [Speciofoline, speciofoline]: at hMOR, the EC50 amounted to 4.24 ± 2.93 µM, the “Inhibition of forskolin-stimulated cAMP accumulation (in words)” value was “has no effect” and the Emax worked out at 12.2 ± 3.5%. Also, the “Inhibition of CYP2D6 activity (in words)” value on CYP2D6 is reported as “concentration-dependent inhibition”. For the same molecule, at µ-opioid receptor [1], the “Affinity at µ-opioid receptor (in words)” value is “did not exhibit appreciable affinity” and the Ki is over 10 µM. Further, on human δ-opioid receptor, the Ki was over 10000 nM and the “Affinity at δ-opioid receptor (in words)” value was “did not exhibit appreciable affinity”. Further, at µ-opioid receptor [2], the “β-arrestin-2 recruitment (in words)” value is “fail to recruit β-arrestin-2”. On CYP2C9, the “Inhibition of CYP2C9 activity (in words)” value is “concentration-dependent inhibition”. The “Inhibition of CYP3A activity (in words)” value on CYP3A is “concentration-dependent inhibition”. For the same molecule, at human κ-opioid receptor, the “Affinity at ƙ-opioid receptor (in words)” value is “did not exhibit appreciable affinity” and the inhibitory constant (Ki) is over 10 µM.

What is called IC50 is the midpoint of a concentration-inhibition curve. A high value points to a need for much substance. Turning to `CC[C@@H]1CN2CCc3c([nH]c4cccc(OC)c34)[C@@H]2C[C@@H]1/C(=C\OC)C(=O)OC` [Mitragynine, mitragynine], at hMOR, the “Inhibition of forskolin-stimulated cAMP accumulation (in words)” value was “partially inhibit cAMP accumulation”. For the same molecule, on CYP2D6, the IC50 is about 1 µM and the “Inhibition of CYP2D6 activity (in words)” value was “stronger inhibition than speciofoline; also recorded: concentration-dependent inhibition”. Further, the “Affinity at µ-opioid receptor (in words)” value on µ-opioid receptor [1] is on record as “moderate affinity”. Also, the Ki on human δ-opioid receptor is over 10000 nM. Further, the “β-arrestin-2 recruitment (in words)” value at µ-opioid receptor [2] is recorded as “fail to recruit β-arrestin-2”. In addition, on CYP2C9, the IC50 lay within 10 to 100 µM and the “Inhibition of CYP2C9 activity (in words)” value is “concentration-dependent inhibition”. Moreover, on CYP3A, the “Inhibition of CYP3A activity (in words)” value was “concentration-dependent inhibition”. Moreover, the IC50 at 2 min at CYP3A (human, microsomes, pH 7.4) was in the range of 10 to 100 µM. At human κ-opioid receptor, the “Affinity at ƙ-opioid receptor (in words)” value is on record as “moderate affinity” and the affinity corresponds to a Ki of 0.482 ± 0.029 µM.

As for `CC[C@@H]1CN2CC[C@@]3(O)C(=Nc4cccc(OC)c43)[C@@H]2C[C@@H]1/C(=C\OC)C(=O)OC` [7-Hydroxymitragynine, 7-hydroxymitragynine], at hMOR, the “Inhibition of forskolin-stimulated cAMP accumulation (in words)” value is recorded as “partially inhibit cAMP accumulation”. In addition, the “Inhibition of CYP2D6 activity (in words)” value on CYP2D6 is given as “moderate inhibitor; also recorded: concentration-dependent inhibition”. In addition, on µ-opioid receptor [1], the “Affinity at µ-opioid receptor (in words)” value is “strong affinity”. Also, on human δ-opioid receptor, the “Affinity at δ-opioid receptor (in words)” value is reported as “moderate affinity”. Further, the “β-arrestin-2 recruitment (in words)” value at µ-opioid receptor [2] is “fail to recruit β-arrestin-2”. Further, at CYP2C9, the “Inhibition of CYP2C9 activity (in words)” value is recorded as “weak inhibitor; also recorded: concentration-dependent inhibition”. Further, on CYP3A, the “Inhibition of CYP3A activity (in words)” value was “weak inhibitor; also recorded: concentration-dependent inhibition”. Besides, the “Affinity at the μ-opioid receptor compared to mitragynine” value in [3] is on record as “approximately fivefold greater affinity”. The “Affinity at ƙ-opioid receptor (in words)” value at human κ-opioid receptor is recorded as “moderate affinity”.

`C[C@@H](NC(=O)[C@@H](N)Cc1ccc(O)cc1)C(=O)NCC(=O)N(C)[C@@H](Cc1ccccc1)C(=O)NCCO` [DAMGO, reference compound]: at hMOR, the “Inhibition of forskolin-stimulated cAMP accumulation (in words)” value is “fully inhibit cAMP accumulation” and the maximal effect (Emax) is 86.2 ± 1.8%. Moreover, at µ-opioid receptor [2], the “β-arrestin-2 recruitment (in words)” value is “effectively recruit β-arrestin-2”.

Source of the values: paper PMC7645423, “Chemical composition and biological effects of kratom (Mitragyna speciosa): In vitro studies with implications for efficacy and drug interactions” (Scientific Reports, 2020).
